Laboratory results as given in patent EP1920756A1, “Cosmetic matrix for a preservative-free cosmetic formulation” (SYRIO PHARMA S.P.A., priority 2006, dated 2008).
Values joined by “and” are separate entries in the source; they are usually repeats but may differ in a detail not shown here. Equal entries are not always repeated. Where two headings read alike, the source gives them in different places.

What was measured:
[1] = tested on: CD86 (B7.2); conditions: THP-1, 48 hours, corrected by the negative control
Procedure: (§1) The test consisted in evaluating the pro-sensitising stimulus on human monocytes. It was deemed appropriate to use a cell model to evaluate the immunological reactivity of typical immunological cells (monocytes in this case) exposed for a prolonged time (48h) to the tested product in two different concentrations
(§2) The test was thus performed on a monocytes cell line named THP-1, as such a cell type is highly involved in the immunological responses of skin, which is the target organ of the tested cream. […] Nickel is in fact able to trigger in vivo allergising-type immunological reactions (contact sensitising).
(§3) The technique is based on the fact that the recognition of the antigen by the TCR (T Cell Receptor) of T lymphocytes (signal 1) is not functional to the maturation of an effective immune response, if it doesn't occur at the membrane of an antigen-presenting cell able to provide an additional signal (signal 2 or costimulus) qualitatively necessary for the definition of the response type (humoral, cellular, etc). Both B7.1 and B7.2 (collectively: B7) are membrane glycoproteins which are present on the surface of several antigen-presenting cells (dendritic cells, Langerhans cells, monocytes/macrophages, other cell lines such as keratinocytes) and serve as costimula. In fact, both these molecules are ligands of a glycoprotein named CD28, which are present on the T lymphocyte membrane. The triggering of the ligand/receptor system CD28B7 avoids the T cell apoptosis (i.e. the programmed cell death) and cooperates to sustain their proliferation and differentiation. In the first steps of the "physiological" immune response, B7.2 is expressed constitutively and modulates both the Th1 and Th2 responses.
(§4) An increase in expression of these co-stimulatory molecules on monocytes is thus a signal of activation of an immune response the exposure in consequence of a potentially allergising antigen. Functionally, in fact, the expression of co-stimulatory molecules on this cell type corresponds to the competence acquisition for expressing the antigen in the typical location (skin in this case) in which a contact sensitization occurs in vivo.
(§5) They were subjected to a preliminary cytotoxicity screening on THP-1 cells to determinate the concentration at which the substance could be used in vitro without causing cell death, event which causes false results.
(§6) Cell growth culture medium exposed to the same experimental conditions was used as a negative control. […]
(§7) After exposure, the cells were examined for their viability by staining with Trypan Blue dye and by observing under microscope in a corpuscle-counter chamber, collected, washed in a isotonic buffer (PBS) and then marked with a fluoresceinated anti-B7.1 or B7.2 antibody. After further washings to remove the excess antibody, the cells were feeded in a flux cytofluorimeter (FACS, Fluorescence Activated Cell Sorter, Becton Dickinson, Mountain View, CA) for the MFI (Mean Fluorescence Intensity) evaluation, which was proportional to the number of molecules marked per cell and therefore representative of the expression level of the tested co-stimulatory molecules.
(§8) As control (basal fluorescence), the MFI of both untreated THP-1 cells (apart from washings in PBS) and THP-1 cells reacted with a fluoresceinated monoclonal antibody (such as the anti-B7.1 and anti-B7.2), but of irrelevant specificity (isotype-matched control) was evaluated.

[2] = tested on: CD80 (B7.1); conditions: for CD80 (MFI*): THP-1, 48 hours, corrected by the negative control
Procedure: as §1, §2, §3, §4, §5, §6, §7, §8

[3] = in contact with healthy and intact skin; cited from earlier work
[4] = tested on: stabilized human keratinocytes (HaCaT cells); assay: Cytotoxicity evaluation with MTT method (UNI EN ISO 10993-5 rule); assay type: cell-based
Procedure: The test consisted in evaluating the cytotoxicity of the moisturizing cream […] aimed to be used on skin or on mucosae following the UNI EN ISO 10993-5 rule concerning the biological evaluation of medical devices. The cytotoxicity test was carried out towards the keratinocyte, the main cell component of skin and mucosae. […] The method is based on the fact that the mitochondrial dehydrogenases of viable cells are able to cleave the tetrazolium ring of MTT, leading to the formation of purple formazane crystals, which are insoluble in water. The crystals are dissolved in acidified isopropanol and the resulting purple solution is measured spectrophotometrically. An increase or decrease in viable cell number results in a concomitant change in the amount of formazan which is forming and can be considered as an indication of the degree of cytotoxicity caused by the exposure to the tested substances. The cell model employed for the in vitro test consisted of stabilized human keratinocytes (HaCaT cells). Cells were cultured in 24-well plates for 24 hours in DMEM + 10% FCS. Fresh culture medium was then added, supplemented with 10% FCS and containing a sample of the product to be tested so as to reach 6 final dilutions ranging from 5 to 0.15 mg/ml. For each sample of the cream […], three replica were performed. Untreated cells were used as negative control, and as positive control cells were treated with a surfactant with known toxicity, i.e. Sodium Lauryl Sulphate briefly referred to as SLS, dissolved in the culture medium in concentrations ranging from 0.5 mg/ml to 0.03 mg/ml. Specifically, samples with SLS amounts equal to 0.5, 0.25, 0.12, 0.06 and 0.03 mg/ml and […] amounts of 5, 2.5, 1.25, 0.6, 0.3, 0.15 mg/ml were prepared. At the end of treatment, the citotoxicity test (MTT) was carried out. The cells were then washed with washing solution (Dulbecco's Phosphate Buffered Saline). After removal of the solution, the MTT-culture medium was added to each well and the cells were incubated at 37°C. At the end of the incubation period, the MTT-culture medium was removed and a MTT solubilizing solution was added to each well. The plate was then stirred on a plate stirrer, while ensuring that all the crystals were dissolved and had formed a homogeneous solution. The absorbance was then read with a chromatometer equipped with a plate reader, by subtracting background reading. The result was expressed as: % cell survival = (OD treated cells × 100)/(OD untreated cells) [formula] […]

## O.O.O.O.O.O.O=S(=O)([O-])[O-].[Ni+2] [Nickel sulphate, Nickel Sulphate (NiSO46H2O)]
[1]; 10 µg/ml
  CD86 (MFI*): 37.35 and 33.26
[1]; 20 µg/ml
  CD86 (MFI*): 77.12 and 87.92
[2]; 4 µg/ml, data not shown
  increase in CD80, with respect to untreated controls: detectable increase
[2]; 10 µg/ml
  CD80 (MFI*): 19.85 and 18.33
[2]; 20 µg/ml
  CD80 (MFI*): 29.00 and 33.48
[3]
  concentration able to cause an allergic reaction in most of the sensitive subjects: above 100 ppm

## CCCCCCCCCCCCOS(=O)(=O)[O-].[Na+] [SLS, Sodium Lauryl Sulphate]
[4]; Dose 0.03 mg/ml, MTT, Sulphate
  Cell viability % (vs negative control): 87.6% and 94.7% and 98.5% and 92.7%
[4]; Dose 0.06 mg/ml, MTT, Sulphate
  Cell viability % (vs negative control): 61.0% and 79.6% and 76.7% and 73.9%
[4]; Dose 0.12 mg/ml, MTT, Sulphate
  Cell viability % (vs negative control): 2.5% and 3.9% and 0.2% and 1.9%
[4]; Dose 0.25 mg/ml, MTT, Sulphate
  Cell viability % (vs negative control): 2.3% and 2.9% and 0.1% and 1.5%
[4]; Dose 0.5 mg/ml, MTT, Sulphate
  Cell viability % (vs negative control): 2.3% and 2.2% and 0.2% and 1.2%
[4]; Homo sapiens, read-out: concentration of 50% inhibition of cell growth (IC50), HaCaT, MTT, theoretical value from regression curve of dose-response
  IC50: 60 µg/mL
[4]; MTT, theoretical value from regression curve of dose-response, Sulphate
  concentration of 50% inhibition of cell growth (IC50): 70 µg/mL and 67 µg/mL
